Experimental findings from US8748426B2, “Inhibitors of diacylglycerol acyl transferase” (Piramal Enterprises Limited, priority 2009, dated 2014) are described below.

SMILES strings stand for the structures.

The target in one test is T1, hDGAT1 (Homo sapiens, UniProt O75907).
T1 sequence (O75907 1-488): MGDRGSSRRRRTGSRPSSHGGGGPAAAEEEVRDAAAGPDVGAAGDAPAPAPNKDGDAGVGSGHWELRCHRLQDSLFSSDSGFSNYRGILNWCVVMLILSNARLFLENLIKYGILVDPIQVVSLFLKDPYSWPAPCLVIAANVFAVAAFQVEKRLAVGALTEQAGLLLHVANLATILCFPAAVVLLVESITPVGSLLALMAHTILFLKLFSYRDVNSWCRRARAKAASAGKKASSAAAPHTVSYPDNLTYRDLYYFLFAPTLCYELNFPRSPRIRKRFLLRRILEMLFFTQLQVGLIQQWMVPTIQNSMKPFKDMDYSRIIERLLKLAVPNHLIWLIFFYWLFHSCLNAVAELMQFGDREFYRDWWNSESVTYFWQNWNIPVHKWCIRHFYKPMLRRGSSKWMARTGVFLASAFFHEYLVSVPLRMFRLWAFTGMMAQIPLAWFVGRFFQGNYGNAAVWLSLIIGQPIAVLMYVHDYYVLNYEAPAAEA
Briefly: In-vitro DGAT1 assay (14C oleoyl CoA, hDGAT1 microsomes from Sf9 cells). The following applies: at 1 μM.
Experimental: Sf9 cells were seeded in spinner flasks on day 0 at a cell density of 1×10^6 and infected on day 1 with hDGAT1 baculovirus at a multiplicity of infection (MOI) of 5 and a cell density of 2×10^6. On day 3 (or 66-72 h), cells were harvested and centrifuged at 2500×g for 10 min. Pellet was resuspended in lysis buffer (100 mM sucrose, 50 mM KCl, 40 mM KH2PO4, 30 mM EDTA, pH 7.2) and passed through 21-gauge needle approximately 10 times. […] The supernatant was subjected to centrifugation at 35,000 rpm in a Beckman Ti-45 rotor at 4° C. for 1 h. The resultant pellet containing the microsomes wasere resuspended overnight in 1 mL of lysis buffer and total protein concentration was estimated using Bradford Reagent. Microsomes were aliquoted and stored at −80° C.
Frozen aliquots of hDGAT1 containing microsomes were thawed (5-10 mg/mL total protein) on ice and diluted to a working stock of 1 mg/mL with DGAT Assay Buffer (DAB).
The assay was performed in duplicates in a reaction volume of 100 μL. […] Procedure:
The reaction was started by the addition of 2.5 μL of 1 mg/mL of microsomes (iv) to the mixture and incubated at 37° C. for 10 min. […] The mixture was vortexed and the triglycerides formed were extracted into the organic heptane phase.
Turning to `O=C(Nc1ccc(-c2ccc3c(c2)C(=O)N(C2CCCC(C(=O)O)C2)C3)cc1)c1ccc(-c2ccccc2)cc1` (stereo not drawn) [Example 545, 3-(6-(4-([1,1′-Biphenyl]-4-ylcarboxamido)phenyl)-1-oxoisoindolin-2-yl)cyclo hexane carboxylic acid], the “% Inhibition of hDGAT1” value is “++ (>50% Inhibition)”.
With `CC(C)[C@@H](C(=O)O)N1Cc2ccc(-c3cnc(NC(=O)c4ccc(-c5ccccc5)cc4)cn3)cc2C1=O` [Example 507, (S)-2-(6-(5-Biphenyl-4-ylcarboxamidopyrazin-2-yl)-1-oxoisoindolin-2-yl)-3-methylbutanoic acid], the “% Inhibition of hDGAT1” value is on record as “++ (>50% Inhibition)”.

The same test, now with this note: read-out: % Inhibition of hDGAT1.
A word on the inhibition: it is the relative decrease from the control value, in per cent. For `CC(C)[C@@H](C(=O)O)N1Cc2cc(-c3ccc(NC(=O)Nc4ccc(C#N)cc4)cc3)ccc2C1=O` [Example 253, (S)-2-(5-(4-(3-(4-Cyanophenyl)ureido)phenyl)-1-oxoisoindolin-2-yl)-3-methylbutanoic acid], the inhibition at 1 µM is more than 50%.
Same read-out and setting: the result for `CC(C)[C@@H](C(=O)O)N1Cc2cc(-c3ccc(NC(=O)c4ccc(F)cc4)cc3)ccc2C1=O` [Example 307, (S)-2-(5-(4-(4-Fluorobenzamido)phenyl)-1-oxoisoindolin-2-yl)-3-methylbutanoic acid] reads 10 to 50%; that for `CCCCOc1ccc(C(=O)Nc2ccc(-c3ccc4c(c3)C(=O)N([C@H](C(=O)O)C(C)C)C4)cc2F)cc1` [Example 452, (S)-2-(6-(4-(4-Butoxybenzamido)-3-fluorophenyl)-1-oxoisoindolin-2-yl)-3-methyl butanoic acid], more than 50%.
On the same count and under the same terms, the result for `CC(C)[C@@H](C(=O)O)N1Cc2ccc(-c3ccc(NC(=O)c4ccc(OC(F)(F)F)cc4)cc3Cl)cc2C1=O` [Example 488, (S)-2-(6-(2-Chloro-4-(4-(trifluoromethoxy)benzamido)phenyl)-1-oxoisoindolin-2-yl)-3-methylbutanoic acid] reads more than 50%; that for `COc1ccccc1C(=O)Nc1ccc(-c2ccc3c(c2)C(=O)N([C@H](C(=O)O)C(C)C)C3)cc1` [Example 160, (S)-2-(6-(4-(2-Methoxybenzamido)phenyl)-1-oxoisoindolin-2-yl)-3-methyl butanoic acid], more than 50%.
Still for that read-out and setting: the result for `CC(C)[C@@H](C(=O)O)N1Cc2ccc(-c3ccc(NC(=O)c4ccc(C(C)(C)C)cc4)nn3)cc2C1=O` [Example 498, (S)-2-(6-(6-(4-tert-Butylbenzamido)pyridazin-3-yl)-1-oxoisoindolin-2-yl)-3-methylbutanoic acid] reads more than 50%; that for `Cc1cccc(NC(=O)Nc2ccc(-c3ccc4c(c3)CN([C@H](C(=O)O)C(C)C)C4=O)cc2)c1` [Example 243, (S)-3-Methyl-2-(1-oxo-5-(4-(3-m-tolylureido)phenyl)isoindolin-2-yl)butanoic acid], more than 50%.
Take `CC(C)[C@@H](C(=O)O)N1Cc2ccc(-c3ccc(NC(=O)c4ccc(OC(F)(F)F)cc4)nn3)cc2C1=O` [Example 502, (S)-3-Methyl-2-(1-oxo-6-(6-(4-(trifluoromethoxy)benzamido)pyridazin-3-yl)isoindolin-2-yl)butanoic acid]: the inhibition at 1 µM is more than 50%.
The same measure, in the same setting: the result for `CC(C)[C@@H](C(=O)O)N1Cc2ccc(-c3ccc(NC(=O)c4ccc5c(c4)C(C)(C)CCC5(C)C)cc3)cc2C1=O` [Example 176, (S)-3-Methyl-2-(1-oxo-6-(4-(5,5,8,8-tetramethyl-5,6,7,8-tetrahydronaphthalene-2-carboxamido)phenyl)isoindolin-2-yl)butanoic acid] reads more than 50%; that for `CC(C)[C@@H](C(=O)O)N1Cc2ccc(-c3ccc(NC(=O)c4ncc(-c5ccccc5)s4)cn3)cc2C1=O` [Example 637, (S)-3-Methyl-2-(1-oxo-6-(5-(5-phenylthiazole-2-carboxamido)pyridin-2-yl)isoindolin-2-yl)butanoic acid], more than 50%.
The same measure, in the same setting: the result for `CC(C)[C@@H](C(=O)O)N1Cc2ccc(-c3ccc(NC(=O)c4ccc(N5CCCC5)nc4)cc3)cc2C1=O` [Example 217, (S)-3-Methyl-2-(1-oxo-6-(4-(6-(pyrrolidin-1-yl)nicotinamido)phenyl)isoindolin-2-yl)butanoic acid] reads more than 50%; that for `CC(C)[C@@H](C(=O)O)N1Cc2ccc(-c3ccc(NC(=O)c4ccc(C5CCCCC5)cc4)cc3)cc2C1=O` [Example 174, (S)-2-(6-(4-(4-Cyclohexylbenzamido)phenyl)-1-oxoisoindolin-2-yl)-3-methyl butanoic acid], more than 50%; that for `CC(C)[C@@H](C(=O)O)N1Cc2ccc(-c3ccc(NC(=O)c4cccnc4)cc3)cc2C1=O` [Example 207, (S)-3-Methyl-2-(6-(4-(nicotinamido)phenyl)-1-oxoisoindolin-2-yl)butanoic acid], more than 50%.
On to `Cc1ccc(C(=O)Nc2ccc(-c3ccc4c(c3)C(=O)N([C@H](C(=O)O)C(C)C)C4)cc2)cc1` [Example 112, (S)-3-Methyl-2-(6-(4-(4-methylbenzamido)phenyl)-1-oxoisoindolin-2-yl)butanoic acid], for which the inhibition at 1 µM is more than 50%.
As for `CC(C)[C@@H](C(=O)O)N1Cc2ccc(-c3ccc(NC(=O)c4ccc(C(F)(F)F)cc4)cc3)cc2C1=O` [Example 102, (S)-3-Methyl-2-(1-oxo-6-(4-(4-(trifluoromethyl)benzamido)phenyl)isoindolin-2-yl)butanoic acid], the inhibition at 1 µM is more than 50%.
Still for that read-out and setting: the result for `CC(C)[C@@H](C(=O)O)N1Cc2ccc(-c3ccc(NC(=O)C4CCCCC4)cc3)cc2C1=O` [Example 118, (S)-2-(6-(4-(Cyclohexanecarboxamido)phenyl)-1-oxoisoindolin-2-yl)-3-methylbutanoic acid] reads more than 50%; that for `CCCCc1ccc(C(=O)Nc2ccc(-c3ccc4c(c3)C(=O)N([C@H](C(=O)O)C(C)C)C4)cc2)cc1` [Example 164, (S)-2-(6-(4-(4-Butylbenzamido)phenyl)-1-oxoisoindolin-2-yl)-3-methylbutanoic acid], more than 50%; that for `COc1ccccc1NC(=S)Nc1ccc(-c2ccc3c(c2)CN([C@H](C(=O)O)C(C)C)C3=O)cc1` [Example 281, (S)-2-(5-(4-(3-(2-Methoxyphenyl)thioureido)phenyl)-1-oxoisoindolin-2-yl)-3-methylbutanoic acid], more than 50%.
On the same count and under the same terms, the result for `CC(C)(C)c1ccc(C(=O)Nc2ccc(-c3ccc4c(c3)C(=O)N(C3(C(=O)O)CCCC3)C4)cc2)cc1` [Example 531, 1-(6-(4-(4-(tert-Butyl)benzamido)phenyl)-1-oxoisoindolin-2-yl)cyclopentane carboxylic acid] reads more than 50%; that for `CC(C)[C@@H](C(=O)O)N1Cc2ccc(-c3ccc(NC(=O)Nc4ccc(F)cc4)cc3)cc2C1=O` [Example 8, (S)-2-(6-(4-(3-(4-Fluorophenyl)ureido)phenyl)-1-oxoisoindolin-2-yl)-3-methyl butanoic acid], 10 to 50%.
For the molecule `CC(C)[C@@H](C(=O)O)N1Cc2ccc(-c3ccc(NC(=O)c4ccc(F)cc4F)cc3)cc2C1=O` [Example 110, (S)-2-(6-(4-(2,4-Difluorobenzamido)phenyl)-1-oxoisoindolin-2-yl)-3-methyl butanoic acid], the inhibition at 1 µM was more than 50%.
With `CC(C)[C@@H](C(=O)O)N1Cc2cc(-c3ccc(NC(=O)c4ccccc4)cc3)ccc2C1=O` [Example 305, (S)-2-(5-(4-Benzamidophenyl)-1-oxoisoindolin-2-yl)-3-methylbutanoic acid], the inhibition at 1 µM was in the range of 10 to 50%.
